The data set in a line: gradient 5% acetonitrile 3 min, to 50% in 2 min, to 85% in 15 min, held 3 min, 100 µL/min. The following applies: column: Zorbax Extend-C18 2.1 x 50 mm; eluents: water / acetonitrile, 0.1% formic acid. In a few lines: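 Mixtures of ~100 pure standards were chromatographed on a Zorbax Extend-C18 column (2.1 × 50 mm, 1.8 μm) at 100 μL/min using water and acetonitrile, each with 0.1% formic acid. Detection used a quadrupole time-of-flight mass spectrometer in positive and negative ionization mode, and data collection spanned 3 months. Retention time was obtained from adduct peaks picked computationally and each checked manually.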
`CCN1CCN(c2ccc(-c3nc(-c4ccc(OC)cc4)no3)cn2)CC1` returned an RP-LC retention time of 696 s. The compound `CCOC(=O)CCc1c(C)c2c(O)cc(O)cc2oc1=O` yielded an RP-LC retention time of 701 s.

In the case of `O=C(NCCc1ccccc1)N1CCC(c2noc(-c3ccccc3)n2)C1` (stereo unspecified), the RP-LC retention time was 914 s. The figure for `COC(=O)CNC(=O)N1CCN(c2nc3ccccc3n3cccc23)CC1` is 590 s; for `O=C(NCc1csc(C2CCCN(C(=O)c3ccc(F)cc3F)C2)n1)C1CC1` (stereo unspecified) it is 717 s.

Compound `CSc1ccccc1C(=O)N1CCC(C(=O)NCc2nc(C)no2)CC1` returned an RP-LC retention time of 628 s.

For the compound `CCCOc1ccc(-c2nc(N3CCC(C)CC3)c3ccccc3n2)cc1`, the RP-LC retention time was 1010 s. Regarding `O=C(Nc1ccc2oc(-c3ccccc3)nc2c1)C1CCN(c2cnn(Cc3ccccc3)c(=O)c2)C1` (stereo unspecified), the RP-LC retention time was found to be 923 s. As for `COCCCNC(=O)C1CCCN(C(=O)c2[nH]c(C)cc2C)C1` (stereo unspecified), the RP-LC retention time was 652 s. With `CCN(CC)CCNC(=O)CCc1c(C)nc2c(c1C)c(=O)n(C)c(=O)n2C`, the RP-LC retention time was determined as 602 s. The figure for `O=C(Nc1ccccc1Cl)c1cc(C2CC2)n2nccc2n1` is 1190 s; for `Cc1ccc(-c2ccc(N3CCCC(C(=O)N4CCC5(CC4)OCCO5)C3)nn2)cc1C` (stereo unspecified) it is 684 s. The figure for `O=C(N[C@@H]1CN(c2ccncn2)C[C@H]1CO)c1ccc2ccccc2n1` is 604 s; for `Cc1ccc(Nc2c(-c3ccc(N(C)C)cc3)nc3ncccn23)cc1C` it is 792 s; for `Cc1nc2cc(N3CC(C(=O)Nc4ccc(C)c(Cl)c4)CC3=O)ccc2o1` (stereo unspecified) it is 819 s.

The compound `COCC(=O)N1N=C(c2cccc(NS(C)(=O)=O)c2)CC1c1ccccc1F` (stereo unspecified) registered an RP-LC retention time of 718 s. The result for `COc1ccc(C(=O)Nc2nccnc2C(=O)NCc2ccc(Br)cc2)cc1` reads 1010 s; that for `CCc1ccc(NC(=O)Nc2cnn(-c3ncc(N4CCCC4)cn3)c2)cc1`, 880 s. The figure for `COc1ccc(NC(=O)c2cc(C(C)C)n(-c3nc4ccccc4s3)n2)cc1OC` is 1200 s; for `CCc1ccc2occ(CC(=O)N(Cc3ccc(N(C)C)cc3)C3CCS(=O)(=O)C3)c2c1` (stereo unspecified) it is 868 s. The result for `Cc1nnc(C2CCCCCN2S(=O)(=O)c2ccccc2F)o1` (stereo unspecified) reads 816 s; that for `CC(C)(C)c1ccc(NC(=O)CSc2ncn[nH]2)cc1`, 719 s. Compound `Cc1csc(C(=O)Nc2ccc(N3CCCN(C(=O)C4CC4)CC3)cc2)c1` yielded an RP-LC retention time of 735 s. The figure for `Cc1nc2ccccc2nc1N1CCCC1` is 680 s; for `CC(C)(C)CC(=O)N1CCCC(c2nc(CNC(=O)C3CCC3)cs2)C1` (stereo unspecified) it is 774 s; for `COC(=O)c1ccc2c(=O)n(-c3ccccc3)c(N3CCSCC3)nc2c1` it is 1030 s.

`CCc1ccccc1NC(=O)c1sc(C)nc1C`: the RP-LC retention time turned out to be 778 s. With `CNC(=O)c1cc(COc2ccc(NC(=O)c3ccc(Br)cc3)cc2)on1`, the RP-LC retention time is 830 s. The figure for `CCOc1ccc(-c2csc(Nc3ccc(F)cn3)n2)cc1` is 1100 s; for `O=C(Cn1cnc2c(sc3nc(-c4ccccc4)ccc32)c1=O)Nc1ccc(F)cc1` it is 994 s. The figure for `CCc1cc(=O)n(CC(=O)Nc2cccc(C(C)=O)c2)c(N2CCOCC2)n1` is 677 s; for `Cc1noc(C)c1-c1ccc(S(=O)(=O)N2CCN(c3ccccc3)CC2)cc1` it is 1080 s; for `O=C(c1cn(-c2cc(N3CCSCC3)ncn2)cn1)N1CCCCC1` it is 789 s.

In turn, `Cc1cc(C(=O)Nc2cccc3ccccc23)n(-c2ccccc2)n1` returned an RP-LC retention time of 908 s. Consider `O=S(=O)(Nc1cccn2ncnc12)c1ccc(F)cc1`, for which the RP-LC retention time is 694 s.

Regarding `COc1cc(OC)cc(-c2nc(C3CC(=O)N(c4ccc(Cl)cc4)C3)no2)c1` (stereo unspecified), the RP-LC retention time amounted to 1290 s. Take `Cc1ccc2c(c1)N(C(=O)C1CCN(S(=O)(=O)c3cccnc3)CC1)CCO2`: the RP-LC retention time is 823 s.

Compound `Cc1nnc(NC(=O)C2CCN(C(=O)c3ccccc3F)CC2)s1` yielded an RP-LC retention time of 624 s. The result for `CSc1ncc(Cl)c(C(=O)Nc2cc(C)on2)n1` reads 783 s; that for `CCOc1ncccc1C(=O)OCc1cc(-c2ccco2)on1`, 927 s. `CC(C)N1CCN(C(=O)CC2Sc3ncccc3N(C)C2=O)CC1` (stereo unspecified) came in with an RP-LC retention time of 570 s.

On to `CCC(CC)CN1CCC(n2c(C)cnc2-c2ccncc2)C1` (stereo unspecified), for which the RP-LC retention time was 542 s. The result for `COc1ccc(CNC(=O)c2cc3sc(Cl)cc3n2C)cc1` reads 1030 s; that for `Cc1ccccc1Nc1c(-c2ccc(Cl)cc2)nc2c(C)cccn12`, 802 s; that for `O=c1n(Cc2cccc(F)c2)nc2ccc(S(=O)(=O)N3CCOCC3)cn12`, 800 s. The figure for `Cc1ccc(C)c(-c2coc(-c3ccc(NC(=O)NCc4ccco4)cc3)n2)c1` is 1110 s. The figure for `O=S(=O)(Nc1ccc2c(c1)OCCO2)c1ccc(-c2nnc(C3CCC3)o2)o1` is 842 s; for `CCN(CC)S(=O)(=O)c1ccc2c(c1)N(CC(=O)NCc1ccccc1C)C(=O)C1CCCCN21` (stereo unspecified) it is 1020 s; for `CS(=O)(=O)N(Cc1ccccn1)C1CN(C(=O)CCc2nc3ccccc3s2)C1` it is 656 s. The compound `CC(C)n1c(N2CCN(C(=O)c3ccc4c(c3)OCO4)CC2)cc(=O)n(C(C)C)c1=O` came in with an RP-LC retention time of 823 s. With `COC(=O)C1=C(C)N(C(C)C)C(=O)C1(NC(=O)CCc1ccccc1)C(F)(F)F` (stereo unspecified), the RP-LC retention time stood at 936 s. The result for `Cc1cc(OC(C)C(=O)N[C@H](C(=O)O)c2ccccc2)c2c3c(c(=O)oc2c1)CCC3` (stereo partly specified) reads 843 s; that for `O=C(NCc1ccc(F)cc1)N1CCc2nc(-c3ccccc3)ncc2C1`, 874 s; that for `COc1ccc(Cl)c2c(=O)c3c([nH]c12)CCN(CC(=O)Nc1c(C)cccc1C)C3`, 621 s. The figure for `Cc1ccc(S(=O)(=O)N2CCN(C3=CC4=NC(C)CN4C=N3)CC2)cc1C` (stereo unspecified) is 698 s; for `O[C@@H]1C[C@@H](c2nnc3n2CCN(Cc2ccccc2)C3)N(Cc2cccnc2)C1` it is 563 s; for `COC(=O)c1cccc(COC(=O)C2=CN(C)S(=O)(=O)N=C2C)c1` it is 874 s. The result for `Cc1ccc(CNC(=O)c2ccc3c(c2)CNCCO3)cc1` reads 617 s.

Compound `COc1cccc(C(=O)NCCCc2ccc(N(C)C)cc2)c1OC` yielded an RP-LC retention time of 574 s. The result for `Cc1nc(Nc2ccc(Br)cn2)sc1C(=O)N1CCN(C)CC1` reads 606 s; that for `Cc1csc(-c2cc(S(=O)(=O)Nc3ccc(Cl)cc3F)c(C)s2)n1`, 1080 s; that for `CCCOc1ccc(S(=O)(=O)n2cccn2)cc1C`, 986 s. The figure for `Cc1ccc2c(Nc3ccc(S(N)(=O)=O)cc3)c(C(=O)OC(C)C)cnc2n1` is 840 s; for `Cc1nnc(NC(=O)c2ccccc2OCc2nc(-c3ccccc3)no2)s1` it is 953 s. `CCc1cc(=O)n(CC(=O)N2CCN(c3ccc(OC)cc3)CC2)c(N2CCOCC2)n1`: the RP-LC retention time turned out to be 668 s. Take `CCc1cccc(NS(=O)(=O)c2cc3n(c2)CCN(CC)C3=O)c1`: the RP-LC retention time was determined as 762 s.

Turning to `CC(C)(C)NCCC(O)c1cc(C(F)(F)F)nc2c(C(F)(F)F)cccc12` (stereo unspecified), the RP-LC retention time was 718 s. The result for `Cc1ccc(-c2cc(C(=O)N3CCN(Cc4ccc5c(c4)OCO5)CC3)c(C)[nH]2)cc1C` reads 718 s. Compound `CC1CCC(NC(=O)CCn2nc(C(=O)N3c4ccccc4CC3C)ccc2=O)CC1` (stereo unspecified) came in with an RP-LC retention time of 851 s. Compound `Cc1cnc(C2CC2)n1CCNS(=O)(=O)c1ccccc1C(F)(F)F` displayed an RP-LC retention time of 569 s.

In turn, `O=C(Nc1cccc(Cl)c1)Nc1cccc(-c2ccc3nncn3n2)c1` gave an RP-LC retention time of 734 s.

`N#Cc1cccc(-c2cn3c(n2)N(C(=O)c2ccccn2)CCC3)c1` displayed an RP-LC retention time of 656 s. Compound `COc1ccc(C)cc1NC(=O)C1CCN(S(=O)(=O)c2cn(C)cn2)CC1` returned an RP-LC retention time of 666 s.

Consider `CC(=O)OCOC(c1ccc2ccccc2c1)P(=O)(OCOC(C)=O)OCOC(C)=O` (stereo unspecified), for which the RP-LC retention time was 854 s. `CCOc1ccc(NC(=O)Cn2c(C)nc3c(sc4nc(-c5ccccc5)ccc43)c2=O)cc1` displayed an RP-LC retention time of 1070 s.

Compound `CCCc1nnc(NC(=O)c2ccc3[nH]c(C)cc(=O)c3c2)s1` came in with an RP-LC retention time of 607 s.

As to `CC(NC(=O)c1cc(-c2ccc(Cl)cc2)cn1C)c1cccnc1` (stereo unspecified), the RP-LC retention time amounted to 726 s. For the compound `COc1cccc(Nc2nc(-c3ccc(I)cc3)cs2)c1`, the RP-LC retention time came to 1270 s.

Take `COc1ccc(NC(=O)Cn2c(=O)c(CCC(=O)NC3CCCC3)nc3ccccc32)cc1Cl`: the RP-LC retention time was found to be 681 s.

Take `Cc1ccccc1OCC(=O)N1CCCC1c1nc(-c2cccc(Cl)c2)no1` (stereo unspecified): the RP-LC retention time worked out at 1150 s. The figure for `COc1cccc(CNC(=O)C2(C)CCCN(C(=O)Nc3cc(C)ccc3C)C2)c1` (stereo unspecified) is 939 s.

For the origin of these results see the METLIN SMRT retention time set (Domingo-Almenara et al. 2019).
